Laboratory results published in a melting point compilation (Tetko et al.; mined from patent text by program, amines drawn as free bases though some values may be those of a salt).

Row | SMILES | melting point [°C]
1 | CC(C)c1cccc(C(C)C)c1-c1cc(OCc2ccccc2)ccc1CC(NC(c1ccccc1)c1ccccc1)C(N)=O (stereo unspecified) | 148 to 150
2 | Cn1c(Cl)nc2c3ncc(Cl)cc3ccc21 | 211 to 213
3 | Cc1c(C)c2c3c(cc(C)c2[nH]c1=O)CC(CN=[N+]=[N-])O3 (stereo unspecified) | 187 to 189
4 | NC(=O)c1nc(-c2cnc3nc[nH]c3c2)nc2c1[nH]c(=O)n2-c1ccccc1C(F)(F)F | 320
5 | Cc1nc2cnccc2n1-c1ccc(C2=Nc3ccccc3N(C)C(=O)C2)cc1 | 147
6 | COc1ccc(C(=O)C(CC(=O)O)c2ccccc2)cc1 (stereo unspecified) | 157 to 159
7 | Fc1cc(N=C2NCCN2)c(F)c(F)c1F | 141 to 143
8 | COc1ccc(S(=O)(=O)Nc2ccc(C)cc2)c2c1[nH]c1ccccc12 | 199 to 203
9 | CCc1ccc2c(c1)CCC21CCc2cc(CC)ccc21 | 236 to 239
10 | CC(C)n1nc(-c2sc(NC(=O)c3ccc(CCl)cc3)nc2-c2ccccc2)ccc1=O | > 250
11 | CCCc1cc(C(=O)O)cc(CCC)c1OCCCCCCc1cccc(O)c1O | 94 to 96
12 | Cc1cc(Br)cnc1NCCCNC1=NS(=O)N=C1NCc1ccncn1 (stereo unspecified) | 171 to 172
13 | COc1cc(OC)nc(Oc2cccc3c2C(=O)OC3Oc2ccccc2)n1 (stereo unspecified) | 155 to 157
14 | CS(=O)(=O)Nc1nc(CN2CCC(c3c[nH]c4ccccc34)CC2)cs1 | 215 to 217
15 | O=S(=O)(C(=Cc1ccc(Cl)cc1)SC(=Cc1ccc(Cl)cc1)S(=O)(=O)c1ccccc1)c1ccccc1 | 251
16 | CCN(CC)c1ccc(C2(c3ccc(N(C)C)cc3N(C)C)OC(=O)c3cc(N(C)C)ccc32)cc1 (stereo unspecified) | 123 to 125
17 | O=C1Nc2ccccc2C(c2ccccc2)CC1Br (stereo unspecified) | 191 to 192
18 | O=C(Nc1ccc2cc(CN3CCCC3)cnc2c1)N1CCC(c2ccc(Cl)cc2)CC1 | 249 to 251
19 | CCC(=O)c1c(C(=O)C(C)C)c2ccc(C(N)=O)cc2n1Cc1ccccc1Cl | 145 to 147
20 | O=C(O)CON=c1c2nccc3c(Cl)ccc(c32)n2cccc12 | 202
21 | NC(=O)CNCC(=O)NCCCO | 118 to 120

Row | SMILES | melting point [°C]
22 | CCN(CC)C(=O)SC1(C(=O)N(CC)CC)C=CC=NC1F (stereo unspecified) | 87 to 88
23 | CC(C)Oc1ccc(CCCCC2OC(=O)NC2=O)cc1 (stereo unspecified) | 81 to 82
24 | CC(C)c1nc(N)cc(=O)[nH]1 | 229 to 230
25 | Cc1cc(Cl)c([N+](=O)[O-])cc1NCCO | 110
26 | CCCCCCCCOc1cc(-c2cccc(C(F)(F)F)c2)c(OCC(=O)O)c(-c2cccc(C(F)(F)F)c2)c1 | 75 to 77
27 | Cc1oc(-c2ccco2)nc1COc1ccc(COc2ncccc2C=O)cc1 | 109 to 110
28 | C[C@@H](NCc1ccc(O)cc1)c1cccc2ccccc12 | 132 to 133
29 | Cc1cc2oc(=O)c3c(c2cc1C)CCN(CCN1CCCCC1)C3 | 142 to 145
30 | O=C(c1ccc(CCCCc2ccccc2)cc1)N(O)Cc1ccccc1 | 83.5 to 85
31 | CCCc1c(OCc2ccc(CSC#N)cc2)ccc(C(C)=O)c1O | 110 to 111
32 | CCCCCCCCCCCCOC(=O)c1ccc2oc3ccccc3c(=O)c2c1 | 79 to 81
33 | CC(=O)OCC(=O)Nc1cccc(Cl)c1C#N | 109 to 110
34 | O=c1[nH]c2ccc(S(=O)CCN3CCC(Cc4ccc(F)cc4F)CC3)cc2o1 (stereo unspecified) | 166 to 168
35 | Cc1ccc(S(=O)(=O)OCCC2CCN(C(c3ccccc3)(c3ccccc3)c3ccccc3)CC2)cc1 | 176
36 | ClCCCC1(c2ccccc2)OCCO1 | 54 to 55.5
37 | CCOC(=O)c1ccc(N=C(Nc2ccc(C(=O)OCC)cc2)c2ccc(OC)cc2)cc1 | 145 to 146
38 | CCN(CC)C(=O)c1cc(-c2ccc(OC)cc2)ccc1OC | 58 to 60
39 | O=C1CCCCc2ccc(N3C[C@H](CO)OC3=O)cc21 | 144 to 146
40 | CC1C[C@H]2[C@@H]3CCC4=CC(=O)CC[C@]4(CS)[C@H]3CC[C@]2(C)C1=O (stereo partly specified) | 130 to 132
41 | O=C(C(Cl)Cl)N1CCSC12CCCCC2 | 149 to 151
42 | CC1CCCC(C)N1Cc1nc(-c2ncn3c2C2CCN2C(=O)c2c(Cl)cccc2-3)no1 (stereo unspecified) | 233 to 236

Next, values leading:

Row | melting point [°C] | SMILES
43 | 153 to 155 | O=C1C(=O)c2ccccc2C2=C1SCC(COc1cccnc1)O2 (stereo unspecified)
44 | 135 to 136 | COc1nc(C)nc(NC(=O)NS(=O)(=O)c2ccccc2OCC2(C)OCCO2)n1
45 | 165 to 166 | COC(=O)N1CCC(c2ccc(N3C[C@H](CNC(C)=O)OC3=O)cc2F)CC1
46 | 222 to 224 | CC(=O)Nc1c(C#N)cnn1-c1ccc(Cl)c(Cl)c1Cl
47 | 111 to 115 | CCOc1ccccc1C(C)CC(=O)Nc1sc2c(c1C#N)CCNC2 (racemic)
48 | 133 to 134 | c1ccc(COc2ccc(-c3nc(COc4ccc(CCCn5ccnc5)cc4)co3)cc2)cc1
49 | 135 | Cc1ccc(S(=O)(=O)c2cn(C(=O)OC(C)(C)C)c3cc(-c4ccc(F)cc4)ccc23)cc1
50 | 55 to 56 | O=C(Cc1cccnc1)c1ccc2c(c1)CCC2
51 | 149 to 150 | Cc1cc(C)cc(C(=O)c2[nH]c(=O)[nH]c(=O)c2C(C)C)c1
52 | 171 to 173 | Cc1cc(O)c2c(c1C)C(=O)CC2
53 | 213 | CNC(=O)N1CCc2[nH]cnc2C1
54 | 113 to 114 | Cc1nc(CO)n(C)c1[N+](=O)[O-]
55 | 39 to 40 | COC(=O)CCCCCc1nn(-c2ccc(F)cc2)c2c1CCC2
56 | 188 to 189 | CCCCCCS(=O)(=O)c1ccccc1C1NC(=O)NC1=O (stereo unspecified)
57 | 121 to 122 | Cc1ccc(CCC(C)(C)NCC(O)c2cc3ccccc3o2)cc1 (stereo unspecified)
58 | 113 to 115 | C=CCOc1cccn2c(=O)cc(C)nc12
59 | 148 to 156 | O=C(O)CCn1c(=O)c(=O)[nH]c2cc([N+](=O)[O-])ccc21
60 | 146 | Brc1ccc2nc(-c3ccccc3)nn2c1
61 | 149 to 151 | COC(=O)c1ncc(Cl)nc1NCc1ccc(OC)c(Cl)c1
62 | 142 to 144 | ClC(=NNc1ccc(Br)cc1)c1ccc(Cl)cc1

Row | melting point [°C] | SMILES
63 | 72 to 73 | CCCC(CCC)C(=O)NC(C)C(=O)OC (stereo unspecified)
64 | 222 to 223 | CN1NN=C(NC(=O)c2cccc3cccnc23)N1
65 | 70 | CCCCc1nc(SCC)c2ccccc2c1Cc1ccc(C(=O)OC)cc1
66 | 129 to 130 | COC(=O)C(=Cc1cc(OC)c(OC)cc1Br)c1ccccc1C(=O)O
67 | 197 to 198 | O=C1NCC(CN2C(=O)C3(COc4cc5c(cc43)CCO5)c3ccccc32)O1 (stereo unspecified)
68 | > 300 | CCOC(=O)C1=C(c2ccc(-n3c(C)nc4cnccc43)cc2)NC(=O)NC1c1ccccc1Cl (stereo unspecified)
69 | 35 to 38 | CC(C)(CO[N+](=O)[O-])C(=O)N1C(C(=O)O)CSC1c1ccccc1 (stereo unspecified)
70 | 265 to 266 | CC(=O)N[C@H](CC(N)=O)C(=O)Nc1ccc(-c2ccc(C(=O)O)c(=O)[nH]2)cc1
71 | 112 to 113 | CN(C)c1ccc(/C=C/c2c(F)cccc2F)cc1
72 | 105 to 115 | CCCCCCC(C(=O)O)n1ccc2cc(-c3ccccc3-c3nn[nH]n3)ccc21 (stereo unspecified)
73 | 185 to 186 | CCC(C#N)=C1CCN(c2ccc(N3C[C@H](CNC(C)=O)OC3=O)cc2F)CC1
74 | 231 to 233 | COC(=O)c1ccc2ncc(C(=O)c3ccc(N4C[C@H](CNC(C)=O)OC4=O)cc3)n2c1
75 | 39 to 41 | CCCc1c(OCCCCCCCC(=O)OC)ccc(C(C)=O)c1O
76 | 210 to 212 | CC(C)(C)NC(=O)c1ccc(-c2ccc3nnn(Cc4ccc5ncccc5c4)c3n2)cc1F
77 | 145 to 147 | CCOC(=O)c1c(-c2ccc(F)cc2)c2ccsc2c(=O)n1C
78 | 144 to 146 | CCCCc1oc2ccccc2c1-c1ncc(-c2ccc3c(Br)c(OCC#N)ccc3c2)o1
79 | 139 | Cc1ccc([C@@H](O)[C@H](Br)C(=O)N2C(=O)O[C@H](c3ccccc3)[C@@H]2C)cc1
80 | 91.5 to 92.5 | CCCCCC(Cc1ccc(OC)c(OCCc2ccccc2)c1)NC(=O)OC(C)(C)C (stereo unspecified)
81 | 200 to 202 | O=C(O)CCNC(=O)c1ccccc1NC(=O)c1ccccc1O
82 | 114 to 116 | COc1ccc2cc(C=CC(C)=O)ccc2c1

Row | melting point [°C] | SMILES
83 | 95 to 96 | COc1ccc(CSC2CNC(=O)C2)cc1 (stereo unspecified)
84 | 213 to 214 | CN1CCN(c2cccc3ccc(NC(=O)Nc4ccccc4)cc23)CC1
85 | 120 to 122 | O=C(CCl)c1ccc2c(c1)CN(C(=O)C(F)(F)F)CC2
86 | 216 to 217 | O=C(O)CCC1c2ccccc2-c2ccccc21
87 | 254 to 255 | COc1cccn2nc(S(=O)(=O)Nc3c(F)cccc3F)nc12
88 | 74 to 76 | CCc1cc2c(cc1CC)C(=O)C(N=[N+]=[N-])=CC2=O
89 | 122 to 125 | C[C@H](NC(=O)[C@@H](Cc1ccccc1)NS(=O)(=O)Cc1ccccc1)C(=O)NC1CCc2nc(N)sc2C1 (stereo partly specified)
90 | 223 to 226 | CCNc1nc(-c2ccc(NC(=O)NCc3ccc(N)nc3)cc2)ccc1C(=O)NC
91 | 206 | Cc1cc(C)cc(NCc2ccc3nc(NC4CCN(CC(N)=O)CC4)n(Cc4nc(C)ccc4O)c3c2)c1
92 | 134 to 136 | O=C(O)C(O)N1C(=O)CCN1c1cccc(Cl)c1 (stereo unspecified)
93 | 142 to 146 | CS(=O)(=O)n1c(=NC(F)(F)F)oc2ccccc21
94 | 118 | COc1ccc2c(c1)C(N1CCN(C)CC1)c1ccccc1C=C2 (stereo unspecified)
95 | 138 | CC(C)c1nccc2c(C(C)C(=O)O)cccc12 (stereo unspecified)
96 | 160 to 162 | CC1(C)CCC(C)(C)c2cc(-c3cc(-c4ccc(C(=O)O)nc4)ccc3-c3ccccc3)ccc21
97 | 225 to 226 | CNC(=O)c1ccn2nc(-c3ccccc3)c(-c3ccc(=O)n(C(C)C)n3)c2c1
98 | 108 to 110 | O=CC1=CC2=C(OC1)c1ccccc1S(=O)(=O)N2
99 | 248 | Cc1cccc(-c2n[nH]cc2-c2ccc(F)c(-c3cn(CCO)cn3)c2)n1
100 | 107 to 109 | COc1ccc(C(=O)c2c(-c3ccccc3)sc3ccccc23)cc1
101 | 146 to 149 | OCC1OC2CC(O)CC(C2)O1 (stereo unspecified)
